The source of these data is ChEMBL document CHEMBL4808201, “Novel triazole-sulfonamide bearing pyrimidine moieties with carbonic anhydrase inhibitory action: Design, synthesis, computational and enzyme inhibition studies” (Bioorg Med Chem Lett, 2021).

This experiment addresses Carbonic anhydrase 9 (Homo sapiens, UniProt Q16790). Briefly: Inhibition of human CA9 measured by stopped flow CO2 hydrase assay.
In the case of `NS(=O)(=O)c1ccc(-n2cc(COc3ccnc(N4CCN(C(c5ccccc5)c5ccccc5)CC4)n3)nn2)cc1`, the Ki (as a rule, the dissociation constant of the complex between target and ligand, obtained from inhibition or displacement) worked out at 192 nM. With `Cc1cc(OCc2cn(-c3ccc(S(N)(=O)=O)cc3)nn2)nc(N2CCOCC2)n1`, the affinity corresponds to a Ki of 30.2 nM. `Cc1cc(OCc2cn(-c3ccc(S(N)(=O)=O)cc3)nn2)nc(N2CCCCC2)n1` came in with a Ki of 35.8 nM.

`NS(=O)(=O)c1ccc(-n2cc(COc3ccnc(N4CCOCC4)n3)nn2)cc1` returned a Ki of 42.5 nM.

In the case of `Cc1cc(OCc2cn(-c3ccc(S(N)(=O)=O)cc3)nn2)nc(N2CCN(C(c3ccccc3)c3ccccc3)CC2)n1`, affinity was put at a Ki of 21.4 nM. `Cc1cc(OCc2cn(-c3ccc(S(N)(=O)=O)cc3)nn2)nc(N2CCN(c3ccccn3)CC2)n1` showed a Ki of 9.1 nM. The result for `NS(=O)(=O)c1ccc(-n2cc(COc3ccnc(N4CCN(Cc5ccccc5)CC4)n3)nn2)cc1` reads 39.1 nM; that for `Cc1cc(OCc2cn(-c3ccc(S(N)(=O)=O)cc3)nn2)nc(N2CCN(c3ccc(F)cc3)CC2)n1`, 466 nM; that for `CCN1CCN(c2nc(C)cc(OCc3cn(-c4ccc(S(N)(=O)=O)cc4)nn3)n2)CC1`, 16.1 nM. In the case of `COc1ccc(-c2nc(C)cc(OCc3cn(-c4ccc(S(N)(=O)=O)cc4)nn3)n2)cc1`, the inhibitory constant (Ki) turned out to be 29.7 nM.

`Cc1cc(OCc2cn(-c3ccc(S(N)(=O)=O)cc3)nn2)nc(N2CCN(Cc3ccccc3)CC2)n1` yielded a Ki of 41.1 nM. To `Cc1cc(OCc2cn(-c3ccc(S(N)(=O)=O)cc3)nn2)nc(-c2ncccc2C#N)n1` belongs 32 nM; to `Cc1cc(OCc2cn(-c3ccc(S(N)(=O)=O)cc3)nn2)nc(N2CCN(C)CC2)n1`, 24.1 nM; to `NS(=O)(=O)c1ccc(-n2cc(COc3ccnc(N4CCN(Cc5ccc(Cl)cc5)CC4)n3)nn2)cc1`, 32.2 nM. `NS(=O)(=O)c1ccc(-n2cc(COc3ccnc(N4CCN(c5ccc(F)cc5)CC4)n3)nn2)cc1` had a Ki of 25.8 nM. To `CCOC(=O)N1CCN(c2nc(C)cc(OCc3cn(-c4ccc(S(N)(=O)=O)cc4)nn3)n2)CC1` belongs 33.4 nM; to `COc1ccccc1N1CCN(c2nccc(OCc3cn(-c4ccc(S(N)(=O)=O)cc4)nn3)n2)CC1`, 44.7 nM; to `COc1ccc(-c2nccc(OCc3cn(-c4ccc(S(N)(=O)=O)cc4)nn3)n2)cc1`, 51.4 nM. As for `NS(=O)(=O)c1ccc(-n2cc(COc3ccnc(N4CCCCC4)n3)nn2)cc1`, the affinity corresponds to a Ki of 41.3 nM. `CCN1CCN(c2nccc(OCc3cn(-c4ccc(S(N)(=O)=O)cc4)nn3)n2)CC1` gave a Ki of 22.7 nM. Turning to `NS(=O)(=O)c1ccc(-n2cc(COc3ccnc(N4CCN(c5ccccc5)CC4)n3)nn2)cc1`, the Ki came to 26.3 nM. Compound `NS(=O)(=O)c1ccc(-n2cc(COc3ccnc(N4CCN(c5ccccn5)CC4)n3)nn2)cc1` returned a Ki of 16.8 nM. On to `N#Cc1cccnc1-c1nccc(OCc2cn(-c3ccc(S(N)(=O)=O)cc3)nn2)n1`, for which the Ki is 155 nM. `CCOC(=O)N1CCN(c2nccc(OCc3cn(-c4ccc(S(N)(=O)=O)cc4)nn3)n2)CC1` showed a Ki of 1.6 nM. For `Cc1cc(OCc2cn(-c3ccc(S(N)(=O)=O)cc3)nn2)nc(N2CCN(Cc3ccc(Cl)cc3)CC2)n1`, the Ki came out at 2.9 nM. To `Cc1cc(OCc2cn(-c3ccc(S(N)(=O)=O)cc3)nn2)nc(N2CCN(c3ccccc3)CC2)n1` belongs 32.8 nM; to `CN1CCN(c2nccc(OCc3cn(-c4ccc(S(N)(=O)=O)cc4)nn3)n2)CC1`, 30.4 nM; to `COc1ccccc1N1CCN(c2nc(C)cc(OCc3cn(-c4ccc(S(N)(=O)=O)cc4)nn3)n2)CC1`, 36.3 nM.
